Laboratory results taken from patent publication US20140228372A1 (priority 2011, published 2014).

Work on Cc1cc(C(F)(F)F)nn1CC(=O)N1CCC(c2csc(NC(=O)Cc3c(F)cccc3Cl)n2)CC1 [I.as.001, 2-(2-chloro-6-fluoro-phenyl)-N-(4-{1-[2-(5-methyl-3-trifluoromethyl-pyrazol-1-yl)-acetyl]-piperidin-4-yl}-thiazol-2-yl)-acetamide] yielded a melting point of 249 to 251 °C.
